Results on twelve compounds are retold here after US6960568B2, “Nucleosides and related processes, pharmaceutical compositions and methods” (Yale University, priority 2002, dated 2005).

Some results are limits rather than exact numbers.

In general, IC50 refers to the concentration needed to halve the response being measured. Read a high IC50 as weaker potency. Broadly, the EC50 is the concentration at which the effect is half-maximal. A higher EC50 goes with a less potent agent. Usually melting point stands for the temperature of the solid-liquid transition.

For one data set, the system named is L1210 leukemia cells. In words: Cytotoxicity against L1210 leukemia cell line in vitro. Type of data set: cell-based. To be noted: Mus musculus, drug concentration required to inhibit cancer cell replication by 50%, tested up to 100 μM. The method, then: (§1) The synthesized compounds were evaluated in vitro for their cytotoxicity against the L1210 and P388 leukemias, the CCRF-CEM lymphoblastic leukemia, and the B16F10 melanoma cell lines and the results are shown in Table 2.

The next data set relates to P388 leukemia cells. As to the kind of experiment: Cytotoxicity against P388 leukemia cell line in vitro. To be noted: Mus musculus, drug concentration required to inhibit cancer cell replication by 50%, tested up to 100 μM. Format: cell-based. The method, then:
as §1

Data set [1] concerns CCRF-CEM lymphoblastic leukemia cells. As to the kind of experiment: Cytotoxicity against CCRF-CEM lymphoblastic leukemia cell line in vitro. Format: cell-based. The following applies: Homo sapiens, drug concentration required to inhibit cancer cell replication by 50%, tested up to 100 μM. The method, then: as §1
Another data set concerns B16F10 melanoma cells. As to the kind of experiment: Cytotoxicity against B16F10 melanoma cell line in vitro. Format: cell-based. To be noted: Mus musculus, B16-F10; drug concentration required to inhibit cancer cell replication by 50%; tested up to 100 μM. The method, then:
as §1

Data set [2] relates to L1210, P388, CCRF-CEM and B16F10 cells. As to the kind of experiment: Cytotoxicity against the panel of neoplastic cell lines, summary in words. Type of data set: cell-based. The following applies: concentrations up to 100 μM. As for the experimental part: as §1
A further data set deals with hepatitis B virus (HBV). As to the kind of experiment: Antiviral assay against hepatitis B virus in vitro. Format: cell-based. To be noted: maximum tested concentration 10 μM. As for the experimental part: Antiviral assays were performed against hepatitis B virus (HBV) and human immunodeficiency virus (HIV-IIIB) in vitro as previously described. Lin, T. S.; Luo, M. Z.; Liu, M. C.; Pai, S. B.; Dutschman, G. E.; Cheng, Y. C., J. Med. Chem. 1994 37, 798-803.

`Nc1nc(F)cc2c1ncn2[C@@H]1O[C@H](CO)[C@@H](O)[C@H]1O` [Compound 38, 4-Amino-6-fluoro-1-(β-D-ribofuranosyl)imidazo[4,5-c]pyridine]: the IC50 with L1210 leukemia cells amounted to 35 µM; with P388 leukemia cells it was 50 µM; in data set [1], 100 µM; with B16F10 melanoma cells, 40 µM. Moreover, in data set [2], the “activity against these neoplastic cell lines (in words)” value (“activity” for short) is on record as “moderate to weak activities”.
`Nc1nc(F)c(F)c2ncn([C@@H]3O[C@H](CO)[C@@H](O)[C@H]3O)c12` [Compound 58, 4-Amino-6,7-difluoro-3-(β-D-ribofuranosyl)imidazo[4,5-c]pyridine] gave a melting point of 155 to 157 °C. Moreover, in the data set on L1210 leukemia cells, the IC50 was > 100 µM. Further, the IC50 in the data set with P388 leukemia cells was > 100 µM. For the same compound, the IC50 in data set [1] is > 100 µM. Besides, the IC50 in the data set on B16F10 melanoma cells is > 100 µM. Besides, in the data set with hepatitis B virus (HBV), the EC50 was ≥ 10 µM.
`Nc1nc(F)c(F)c2c1ncn2[C@@H]1O[C@H](CO)[C@@H](O)[C@H]1O` [Compound 57, 4-Amino-6,7-difluoro-1-(β-D-ribofuranosyl)imidazo[4,5-c]pyridine] had a melting point of 163 to 165 °C. Moreover, half-maximal inhibition in the data set with L1210 leukemia cells (IC50) required 90 µM. Further, in the data set on P388 leukemia cells, the IC50 turned out to be 90 µM. This compound yielded an IC50 in data set [1] of 40 µM. The compound also returned an IC50 with B16F10 melanoma cells of 100 µM. Besides, the “activity” value in data set [2] was “moderate to weak activities”.
Take `Nc1[nH]c(=O)c2ncn([C@@H]3O[C@H](CO)[C@@H](O)[C@H]3O)c2c1Br` [Compound 62, 6-Amino-7-bromo-1,5-dihydro-1-β-D-ribofuranosylimidazo[4,5-c]pyridin-4-one]: the IC50 was 3 µM in the data set on L1210 leukemia cells, 7 µM in the data set with P388 leukemia cells, 9 µM in data set [1] and 7 µM in the data set with B16F10 melanoma cells.
On to `Nc1nc(F)cc2c1ncn2[C@H]1O[C@H](CO)[C@@H](O)[C@@H]1O` [Compound 44, 4-Amino-6-fluoro-1-α-D-arabinofuranosylimidazo[4,5-c]pyridine], for which the melting point is 198 °C (dec.). For the same compound, the IC50 with L1210 leukemia cells was > 100 µM. The IC50 in the data set on P388 leukemia cells was > 100 µM. The IC50 in data set [1] was > 100 µM. In addition, the IC50 with B16F10 melanoma cells was > 100 µM.
Consider `Nc1ncc(F)c2c1ncn2[C@@H]1O[C@H](CO)[C@@H](O)[C@H]1O` [Compound 51, 4-Amino-7-fluoro-1-(β-D-ribofuranosyl)imidazo[4,5-c]pyridine], for which the IC50 amounted to 15 µM with L1210 leukemia cells, 100 µM in the data set with P388 leukemia cells, 60 µM in data set [1] and 45 µM in the data set on B16F10 melanoma cells. Further, the EC50 with hepatitis B virus (HBV) turned out to be 9.2 µM. In addition, in data set [2], the “activity” value was “moderate to weak activities”.
As to `Nc1nc(F)cc2c1ncn2[C@@H]1O[C@H](CO)[C@@H](O)[C@@H]1O` [Compound 43, 4-Amino-6-fluoro-1-β-D-arabinofuranosylimidazo[4,5-c]pyridine], the IC50 (with L1210 leukemia cells; with P388 leukemia cells; in data set [1]; with B16F10 melanoma cells) was > 100 µM in each case.
On to `Nc1[nH]c(=O)c2ncn([C@@H]3O[C@H](CO)[C@@H](O)[C@H]3O)c2c1Cl` [Compound 61, 6-Amino-7-chloro-1,5-dihydro-1-β-D-ribofuranosylimidazo[4,5-c]pyridin-4-one], for which the IC50 with L1210 leukemia cells is 12 µM; with P388 leukemia cells it was 40 µM; in data set [1], 30 µM; in the data set on B16F10 melanoma cells, 35 µM.
The matching figures for `CNc1nc(F)cc2c1ncn2[C@@H]1O[C@H](CO)[C@@H](O)[C@H]1O` [Compound 39, 6-Fluoro-4-methylamino-1-(β-D-ribofuranosyl)imidazo[4,5-c]pyridine]: > 100 µM, > 100 µM, 100 µM and > 100 µM.
For `Nc1nc(F)c(Cl)c2c1ncn2[C@@H]1O[C@H](CO)[C@@H](O)[C@H]1O` [Compound 59, 4-Amino-7-chloro-6-fluoro-1-(β-D-ribofuranosyl)imidazo[4,5-c]pyridine], the melting point lay in the range of 175 to 177 °C. In the data set with L1210 leukemia cells, this compound registered an IC50 of 55 µM. In the data set with P388 leukemia cells, inhibition was half-maximal at 90 µM (IC50). Further, the IC50 in data set [1] worked out at 60 µM. In addition, the IC50 in the data set on B16F10 melanoma cells is 100 µM. Further, the EC50 in the data set on hepatitis B virus (HBV) was 7.5 µM. Moreover, the “activity” value in data set [2] is recorded as “moderate to weak activities”.
For the compound `Nc1nc(F)c(Cl)c2ncn([C@@H]3O[C@H](CO)[C@@H](O)[C@H]3O)c12` [Compound 60, 4-Amino-7-chloro-6-fluoro-3-(β-D-ribofuranosyl)imidazo[4,5-c]pyridine], the melting point lay within 166 to 168 °C. Further, the IC50 with L1210 leukemia cells is > 100 µM. Also, the IC50 in the data set with P388 leukemia cells was > 100 µM. Moreover, in data set [1], the IC50 was > 100 µM. Besides, the IC50 with B16F10 melanoma cells is > 100 µM.
In the case of `Nc1ncc(Cl)c2c1ncn2[C@@H]1O[C@H](CO)[C@@H](O)[C@H]1O` [Compound 52, 4-Amino-7-chloro-1-(β-D-ribofuranosyl)imidazo[4,5-c]pyridine], the melting point was 169 °C (dec.). Moreover, the IC50 with L1210 leukemia cells is > 100 µM. The IC50 in the data set with P388 leukemia cells was > 100 µM. The IC50 in data set [1] is > 100 µM. Also, the IC50 in the data set with B16F10 melanoma cells was > 100 µM.
